According to EP2961753B1, “STANNOUS FLUORESCENT PROBE” (priority 2014, dated 2015):

What was measured:
[1] = Metal ion sensing: fluorescence titration with Sn^2+ and selectivity against various metal ions; assay type: physicochemical; settings: for fluorescence at 580 nm / fluorescence of the solution / selectivity on sensing Sn^2+: metal ions that turn fluorescence on: 20 µM in ethanol-water (1: 1, v/v, PH 7.04); for fluorescence at 580 nm: addition of Sn^2+ (0-20 eq); for fluorescence at 580 nm / selectivity on sensing Sn^2+: metal ions that turn fluorescence on / fluorescence enhancement by other transition and heavy metal ions: excitation 560 nm; for fluorescence of the solution: no metal ion added; for selectivity on sensing Sn^2+: metal ions that turn fluorescence on: various metal ions; for fluorescence enhancement by other transition and heavy metal ions: 20 µM, K^+, Ag^+, Ca^2+, Mg^2+, Zn^2+, Pb^2+, Ni^2+, Mn^2+, Co^2+, Cd^2+, Hg^2+
Method: Solutions of the metal ions (10.0 mM) are prepared in deionized water. A stock solutions of Compounds R1 and R2 (0.2 mM) are each prepared in ethanol and then diluted to 20 µM with ethanol-water (1: 1, v/v, pH 7.04) for spectral measurement. For titration experiments, a 2.0 mL solution of Compounds R1 and R2 (20 µM) are filled in a respective quartz optical cell of 1 cm optical path length. Sn^2+ stock solution is added into the quartz optical cell gradually by micro-pipette. Spectral data is recorded at 5 min after addition. In selectivity experiments, the test samples are prepared by placing appropriate amounts of metal ion stock into 2.0 mL solution of R1, R2 (20 µM). For fluorescence measurements, excitation is provided at 560 nm, while emission is collected from 565 to 700 nm.

[2] = pH titration of probe fluorescence; assay type: physicochemical; settings: 10 µM in PBS, fluorescence at 580 nm, excitation 560 nm, no Sn^2+
Method: pH titration of Compounds R1 and R2 is described. Stock solutions of Compounds R1 and R2 are respectively added to sodium phosphate buffers of various pH to a final concentration of 10 µM. The fluorescence emission spectra are recorded as a function of pH using λex at 560 nm. The titration curves are plotted by fluorescence emission intensities at 580 nm versus pH.
The impact of pH values on fluorescence is described. The pirolactam ring of the rhodamine derivatives will open in a certain pH range and indicates the fluorescence of rhodamine. It is therefore necessary to check the fluorescence properties of Compounds R1 and R2 in solutions with different pH values. […] Considering the application of Sn^2+ probe R1 and R2 intracellular or extracellular may be disturbed by the pH, the acid-base titration experiments are carried out by adjusting the pH with an aqueous solution of NaOH and HCl in Phosphate-Buffered Saline ("PBS") (Fig.2 a and b). […] Figures 2a and 2b show the dependence of fluorescence at 580 nm of comparative Compound R1 and inventive Compound R2 (10 µM) at different pH in PBS solution. Excitation was at 560 nm.

| Molecule | fluorescence at 580 nm [1] | fluorescence of the solution [1] | selectivity on sensing Sn^2+: metal ions that turn fluorescence on [1] | fluorescence enhancement by other transition and heavy metal ions [1] | pH range for inducing fluorescence turning on [2] |
| --- | --- | --- | --- | --- | --- |
| CCN(CC)c1ccc2c(c1)Oc1cc(N(CC)CC)ccc1C21c2ccccc2C(=O)N1NC(=O)OC(C)(C)C [Compound R2] | turned on and grown drastically | non-fluorescent | tuning on just in the presence of Sn^2+ and Cr^3+ | minimal enhancement | 2-4.5 |
| Spiro[1H-isoindole-1,9'-[9H]xanthen]-3(2H)-one, 2-[2-[bis(2-hydroxyethyl)amino]amino]ethyl]-3',6'-bis(diethylamino) [Compound R1] | turned on and grown drastically | non-fluorescent | tuning on just in the presence of Sn^2+ and Cr^3+ | minimal enhancement | 2.5-6 |
